In patent publication US20190352276A1, “INHIBITORS OF BRUTON'S TYROSINE KINASE” (Joint Stock Company "Biocad", priority 2016, published 2019):

Legend:
[1] = target: T1, ITK (Homo sapiens, UniProt Q08881); assay: In vitro kinase panel: ITK; assay type: biochemical; settings: Table 9 kinase panel
T1 construct: purchased SignalChem I13-10G
T1 sequence (Q08881 1-620): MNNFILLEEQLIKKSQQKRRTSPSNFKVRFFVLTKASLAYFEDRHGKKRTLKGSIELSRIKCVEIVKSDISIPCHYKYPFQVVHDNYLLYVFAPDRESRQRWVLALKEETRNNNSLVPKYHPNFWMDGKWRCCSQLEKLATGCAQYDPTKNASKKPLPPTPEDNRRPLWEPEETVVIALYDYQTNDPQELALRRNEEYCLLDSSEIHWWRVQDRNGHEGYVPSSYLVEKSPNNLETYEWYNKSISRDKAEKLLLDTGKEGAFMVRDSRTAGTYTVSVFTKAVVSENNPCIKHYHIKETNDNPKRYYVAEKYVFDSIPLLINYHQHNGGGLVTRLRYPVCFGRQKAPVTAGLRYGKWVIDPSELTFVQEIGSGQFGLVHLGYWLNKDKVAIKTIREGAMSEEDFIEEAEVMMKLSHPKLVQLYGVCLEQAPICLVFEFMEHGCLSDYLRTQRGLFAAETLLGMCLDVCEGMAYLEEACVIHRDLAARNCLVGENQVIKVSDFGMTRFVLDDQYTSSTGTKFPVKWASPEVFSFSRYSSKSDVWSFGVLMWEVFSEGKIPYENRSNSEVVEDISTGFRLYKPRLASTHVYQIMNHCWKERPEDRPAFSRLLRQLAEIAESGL
Method: (§1) The measurements were carried out in a 25 μL reaction volume using a 96-well plate (Corning, #3642). The kinase enzyme and inhibitor were pre-incubated for 10 minutes in the reaction buffer containing 25 mM of MOPS (pH 7.2), 12.5 mM of 0-glycerophosphate, 27 mM of MgCl2, 2 mM of MnCl2, 5 mM of EGTA, 2 mM of EDTA, 0.3 mM of DTT, and 1.2 mg/mL of bovine serum albumin. Staurosporine (Abcam Biochemicals, ab146588) was used as a reference inhibitor and 0.1% DMSO in the reaction buffer—as a negative control. The solution of 0.5 mg/mL peptide substrate and 50 &M ATP in the same buffer were added; the solution was incubated for 180 minutes at 37° C. To detect the amount of ATP taken up during the kinase reaction, the equivalent amount of ADP (from the ADP Glo Detection Kit (Promega, #V9101)) was used according to the protocol. The reaction mixture was equilibrated to room temperature. 25 µL of ADP-Glo Reagent were added into each well; the plate was incubated for 40 minutes. 50 μL of Kinase Detection Reagent were added; the plate was incubated for 30 minutes. The luminescence was measured with multimode plate reader (Tecan Infinite M200Pro, Switzerland). IC50 values were calculated using Magellan 7.2 software (Tecan, Switzerland) approximating experimental points by four-parameter logistic model with the optimization by Levenberg-Marquardt.
(§2) For active compounds selected by screening using the target enzyme BTK, the values of IC50 were determined on a kinase panel: EGFR (SignalChem, #E10-11G), ITK (SignalChem, #I13-10G) and TEC (SignalChem, #T03-10G).

[2] = tested on: HepG2 cells (hepatocellular carcinoma); assay: General cytotoxicity on HepG2 cells (CC50; therapeutic index CC50 HepG2/IC50 Mino); assay type: cell-based; settings: therapeutic index
How it was run: (§3)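 Alamar Blue viability after 72 h exposure to compounds (final 200 μM–4 μM) gave CC50; HepG2 plated 2*10^4/well in DMEM 24 h beforehand. Therapeutic index expressed as ratio of HepG2 CC50 to Mino antiproliferative IC50.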

[3] = as above; assay type: cell-based; settings: human, HepG2 cells (hepatocellular carcinoma), 72 hours, Alamar Blue
How it was run: as §3

[4] = tested on: Z-138 (mantle cell lymphoma); assay: Antiproliferative activity, Z-138 cells (Alamar Blue); assay type: cell-based; settings: Homo sapiens
How it was run: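 A 72 h growth-inhibition assay using Alamar Blue fluorescence as the viability readout, with IC50 taken from a four-parameter logistic curve.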

[5] = target: T2, EGFR (Homo sapiens, UniProt P00533); assay: In vitro kinase panel: EGFR; assay type: biochemical; settings: Table 9 kinase panel
T2 construct: purchased SignalChem E10-11G
T2 sequence (P00533 672-1210 limits assumed): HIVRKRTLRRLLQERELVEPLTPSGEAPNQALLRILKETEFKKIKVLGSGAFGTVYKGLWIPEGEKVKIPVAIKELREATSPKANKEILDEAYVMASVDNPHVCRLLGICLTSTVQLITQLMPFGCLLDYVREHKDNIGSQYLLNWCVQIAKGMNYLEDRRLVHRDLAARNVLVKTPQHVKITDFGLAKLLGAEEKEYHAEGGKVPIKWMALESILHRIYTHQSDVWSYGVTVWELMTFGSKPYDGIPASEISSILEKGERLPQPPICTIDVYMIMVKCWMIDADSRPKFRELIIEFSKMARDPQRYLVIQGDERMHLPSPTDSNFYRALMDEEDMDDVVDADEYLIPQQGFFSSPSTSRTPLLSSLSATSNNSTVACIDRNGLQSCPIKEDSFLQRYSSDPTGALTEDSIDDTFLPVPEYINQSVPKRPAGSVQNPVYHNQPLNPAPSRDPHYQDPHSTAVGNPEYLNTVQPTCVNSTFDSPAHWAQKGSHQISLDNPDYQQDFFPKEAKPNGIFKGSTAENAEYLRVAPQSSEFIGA
Method: as §1, §2

[6] = Stability in human blood plasma; settings: 10 μM in pooled human blood plasma, incubated 4 hours at 37° C.
[7] = Chemical stability in artificial gastric fluid (SGF without enzymes); settings: 10 μM in SGF without enzymes, pH=1.4, 37° C.
[8] = Table 10, average of several tests
[9] = Table 10, 72 h, average of several tests

Compound | IC50 [1] | IC50 ([4]; Table 11, 72 h) | IC50 [5] | IC50 [4, 9] | Amount of substance in the sample, % (stability in human blood plasma) [6] | Amount of substance in the sample in % (chemical stability) [7] | CC50 (HepG2)/IC50 (Mino) ([2]; Table 11) | CC50 at 72 h ([3]; Table 11) | CC50 (HepG2)/IC50 (Mino) ([2]; Table 10) | CC50 at 72 h [3, 8]
C=CC(=O)N1CCC[C@@H](n2nc(-c3ccc(Oc4ccncc4)cc3)c3cncc(Cl)c32)C1 [BCD-BTK-125, (R)-1-(1-acryloylpiperidin-3-yl)-7-chloro-3-(4-(pyridin-4-yloxy)phenyl)-1H-pyrazolo[4,3-c]pyridine] | > 1 µM | 14.6 µM | > 1 µM |  |  |  | 4.18 | 27.1 µM |  | 
C=CC(=O)N1CCC[C@@H](n2nc(-c3ccc(Oc4ccncc4)cc3)c3c(N)ncc(Cl)c32)C1 [BCD-BTK-139, (R)-1-(1-acryloylpiperidin-3-yl)-7-chloro-3-(4-(pyridin-4-yloxy)phenyl)-1H-pyrazolo[4,3-c]pyridin-4-amine] | 0.2 µM | 21.1 µM | 0.0488 µM |  |  |  | 3.88 | 39.6 µM |  | 
C=CC(=O)N1CCC[C@@H](n2nc(-c3ccc(C(=O)Nc4ccccn4)cc3)c3cncc(Cl)c32)C1 [BCD-BTK-201] | > 0.3 µM |  | 0.172 µM | 6.54 µM |  |  |  |  | >4.20 | > 50 µM
C=CC(=O)N1CCC[C@@H](n2nc(-c3ccc(Oc4ccncc4C#N)cc3)c3cncc(Cl)c32)C1 [BCD-BTK-202, (R)-4-(4-(1-(1-acryloylpiperidin-3-yl)-7-chloro-1H-pyrazolo[4,3-c]pyridin-3-yl)phenoxy)nicotinonitrile] | > 0.5 µM |  | > 0.5 µM | 12.6 µM |  |  |  |  | 4.10 | 32 µM
C=CC(=O)N1CCC[C@@H](n2nc(-c3ccc(Oc4cccnc4C(N)=O)cc3)c3cncc(Cl)c32)C1 [BCD-BTK-220, 3-(4-{7-chloro-1-[(3R)-1-(prop-2-enoyl)piperidin-3-yl]-1H-pyrazolo[4,3-c]pyridin-3-yl}phenoxy)pyridine-2-carboxamide] | > 0.3 µM |  | 0.82 µM | 14.2 µM | 90.2% | 100% |  |  | >9.51 | > 50 µM
C=CC(=O)N1CCC[C@@H](n2nc(-c3ccc(Oc4cccnc4C#N)cc3)c3cncc(F)c32)C1 [BCD-BTK-230, (R)-3-(4-(1-(1-acryloylpiperidin-3-yl)-7-fluoro-1H-pyrazolo[4,3-c]pyridin-3-yl)phenoxy)picolinonitrile] | > 1 µM |  | > 0.5 µM | 14.4 µM | 93.3% | 99.9% |  |  | 5.87 | 57.6 µM

Now from value to compound, other results behind:

IC50 [1] | IC50 ([4]; Table 11, 72 h) | IC50 [5] | IC50 [4, 9] | Amount of substance in the sample, % (stability in human blood plasma) [6] | Amount of substance in the sample in % (chemical stability) [7] | Compound | CC50 (HepG2)/IC50 (Mino) ([2]; Table 11) | CC50 at 72 h ([3]; Table 11) | CC50 (HepG2)/IC50 (Mino) ([2]; Table 10) | CC50 at 72 h [3, 8]
0.0254 µM |  | 0.0018 µM | 16.8 µM | 83.5% | 100% | C=CC(=O)N1CCC[C@@H](n2nc(-c3ccc(C(=O)Nc4ccccn4)cc3)c3c(N)ncc(C#N)c32)C1 [BCD-BTK-234, (R)-4-(1-(1-acryloylpiperidin-3-yl)-4-amino-7-cyano-1H-pyrazolo[4,3-c]pyridin-3-yl)-N-(pyridine-2-yl)benzamide] |  |  | 3.81 | 36.6 µM
0.0249 µM |  | 0.0105 µM | 16 µM | 80.3% | 100% | C=CC(=O)N1CCC[C@@H](n2nc(-c3ccc(Oc4ccncc4)cc3)c3c(N)ncc(OC)c32)C1 [BCD-BTK-239, (R)-1-(1-acryloylpiperidin-3-yl)-4-amine-7-methoxy-3-(4-(pyridin-4-yloxy)phenyl)-1H-pyrazolo[4,3-c]pyridine] |  |  | 4.24 | 60.2 µM
0.00778 µM |  | 0.00241 µM | 10.5 µM | 100.0% | 100% | C=CC(=O)N1CCC[C@@H](n2nc(-c3ccc(C(=O)Nc4ccccn4)cc3)c3c(N)ncc(OC)c32)C1 [BCD-BTK-240, (R)-4-(1-(1-acryloylpiperidin-3-yl)-4-amino-7-methoxy-1H-pyrazolo[4,3-c]pyridin-3-yl)-N-(pyridin-2-yl)benzamide] |  |  | >7.11 | > 100 µM
0.011 µM |  | 0.00132 µM | 16.5 µM | 100.0% | 100% | C=CC(=O)N1CCC[C@@H](n2nc(-c3ccc(C(=O)Nc4ccccn4)cc3)c3c(N)nccc32)C1 [BCD-BTK-242, (R)-4-(1-(1-acryloylpiperidin-3-yl)-4-amino-1H-pyrazolo[4,3-c]pyridin-3-yl)-N-(pyridin-2-yl)benzamide] |  |  | 3.03 | 52.5 µM
0.0101 µM |  | 0.00883 µM | 4.46 µM |  |  | C=CC(=O)N1CCC[C@@H](n2nc(-c3ccc(C(=O)Nc4cc(C(F)(F)F)ccn4)cc3)c3c(N)ncc(Cl)c32)C1 [BCD-BTK-251, (R)-4-(1-(1-acryloylpiperidin-3-yl)-4-amino-7-chloro-1H-pyrazolo[4,3-c]pyridin-3-yl)-N-(4-(trifluoromethyl)pyridin-2-yl)benzamide] |  |  | >13.70 | > 50 µM
> 1 µM |  | > 0.5 µM | 14.9 µM |  |  | C=CC(=O)N1CCC[C@@H](n2nc(-c3ccc(C(=O)Nc4cc(C(F)(F)CCC)ccn4)cc3)c3cncc(Cl)c32)C1 [BCD-BTK-252, (R)-4-(1-(1-acryloylpiperidin-3-yl)-7-chloro-1H-pyrazolo[4,3-c]pyridin-3-yl)-N-(4-(1,1-difluorobutyl)pyridin-2-yl)benzamide] |  |  | >22.43 | > 100 µM
0.0333 µM |  | 0.0186 µM | 35.8 µM |  | 100% | C=CC(=O)N1CCC[C@@H](n2nc(-c3ccc(C(=O)Nc4ncccc4F)cc3)c3c(N)ncc(C#N)c32)C1 [BCD-BTK-258, 4-{4-amino-7-cyano-1-[(3R)-1-(prop-2-enoyl)piperidin-3-yl]-1H-pyrazolo[4,3-c]pyridin-3-yl}-N-(3-fluoropyridin-2-yl)benzamide] |  |  | >2.89 | > 50 µM
0.0635 µM |  | > 0.5 µM | > 50 µM |  |  | C=CC(=O)N1CCC[C@@H](n2nc(-c3cnc(C(=O)Nc4cc(C(F)(F)CCC)ccn4)nc3)c3cncc(Cl)c32)C1 [BCD-BTK-292, (R)-5-(1-(1-acryloylpiperidin-3-yl)-7-chloro-1H-pyrazolo[4,3-c]pyridin-3-yl)-N-(4-(1,1-difluorobutyl)pyridin-2-yl)pyrimidine-2-carboxamide] |  |  | >29.81 | > 100 µM
